This passage reports IC50 results from PubChem BioAssay AID1645864 (Buhrlage Lab, Dana-Farber Cancer Institute and Novartis …, 2021).

Molecules are shown by their SMILES. Activity calls are given as the source filed them.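 The calls were made as follows: active = maximal inhibition of USP17 at or above 30% in the confirmation dose-response, a value not among the printed readouts; inactive = the rest.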 Some results are limits rather than exact numbers.

The target of the experiment is Ubiquitin carboxyl-terminal hydrolase 17-like protein 5 (Homo sapiens) (UniProt A8MUK1). Description: ubiquitin-specific protease 17 inhibitors, concentration series, biochemical, verification of primary actives (AID 1645864). The conditions noted are these: purified USP17, ubiquitin-rhodamine cleavage fluorescence, 3 h.
Chain of Ubiquitin carboxyl-terminal hydrolase 17-like protein 5 (Homo sapiens) (A8MUK1 whole entry, looked up): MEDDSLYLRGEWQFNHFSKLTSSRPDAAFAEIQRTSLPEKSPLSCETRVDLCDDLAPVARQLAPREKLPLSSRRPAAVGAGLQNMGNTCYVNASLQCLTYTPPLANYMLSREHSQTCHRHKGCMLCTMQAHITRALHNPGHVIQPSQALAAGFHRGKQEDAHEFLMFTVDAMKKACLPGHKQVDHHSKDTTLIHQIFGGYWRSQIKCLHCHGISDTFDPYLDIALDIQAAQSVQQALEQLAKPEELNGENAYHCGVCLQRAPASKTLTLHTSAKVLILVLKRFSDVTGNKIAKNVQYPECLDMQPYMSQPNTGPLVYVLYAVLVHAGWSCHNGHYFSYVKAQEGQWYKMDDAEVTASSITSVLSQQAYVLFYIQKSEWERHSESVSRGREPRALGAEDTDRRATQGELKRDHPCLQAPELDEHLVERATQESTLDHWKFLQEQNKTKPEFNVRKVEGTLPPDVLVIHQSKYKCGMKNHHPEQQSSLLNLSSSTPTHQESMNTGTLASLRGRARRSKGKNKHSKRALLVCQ
In the case of `O=C1Cc2ccccc2C(=O)N1c1ccc2c(c1)OCO2`, the IC50 was 22.6 µM.
With `Cc1nn(-c2cc(N3CCOCC3)ncn2)c(C)c1CCC(=O)Nc1ccc(C(C)C)cc1` the figure was 29.1 µM; with `COc1cnc(CSc2ncccn2)cc1OCC(=O)Nc1cc(C)ccc1C`, > 50 µM (inactive).
Turning to `COc1ccc(OC)c(NC(=O)c2ccc(-n3nnnc3SC)cc2)c1`, the IC50 was 29.9 µM.
Then `CC(C)N1C[C@@H]2C[C@H](NS(=O)(=O)c3cccc(C#N)c3)CN2Cc2ccccc21`, with > 50 µM (inactive); and `Cn1c(COc2ccccc2)nnc1SCC(=O)Nc1ccc(N2CCOCC2)cc1`, with 23.9 µM.
With `O=S(=O)(Nc1ccc(O)cc1)c1ccc2oc3ccc(S(=O)(=O)Nc4ccc(O)cc4)cc3c2c1` the figure was 43.6 µM.
With `NS(=O)(=O)c1cc(C(=O)OCC(=O)NC2CCCc3ccccc32)ccc1Cl` (stereo not given) the figure was 47.4 µM; with `CC(OC(=O)CNC(=O)c1ccc(Br)cc1)C(=O)Nc1ccc2c(c1)OCCO2` (stereo not given), 30.4 µM; with `COc1ccc(CCNC(=O)c2noc3c2CCc2sccc2-3)cc1OC`, 22 µM.
On to `COc1cccc(CCNC(=O)CCn2c(=O)c(C)nc3cc(C)c(C)cc32)c1`, for which the IC50 is > 50 µM (inactive).
On to `COc1ccccc1NS(=O)(=O)c1ccc2oc(SCC(=O)c3ccccc3)nc2c1`, for which the IC50 is > 50 µM (inactive).
Then `O=C(CSc1nc2cc(C(F)(F)F)ccc2s1)NCC(=O)c1ccccc1`, with 1.86 µM; and `Cn1cc(NC(=O)Nc2cccc3ccccc23)c2ccccc21`, with 32.7 µM; and `O=C(Cn1cncc(C(=O)NC2CCCC2)c1=O)Nc1cccc(F)c1`, with 19 µM.
On to `O=C(NCc1ccc2c(c1)OCO2)c1[nH]nc2c1COc1ccccc1-2`, for which the IC50 is 1.84 µM.
With `c1ccc(CN2CCN(c3nc4ccccc4n4nnnc34)CC2)cc1` the figure was > 50 µM (inactive); with `Oc1ccc(-c2nc3ccc(Cl)cn3c2NC2CCCCC2)cc1`, 15.2 µM; with `O=[N+]([O-])c1ccc(NCC2COc3ccccc3O2)c(Cl)c1` (stereo not given), > 50 µM (inactive).
Regarding `O=C(Nc1cccc2ccccc12)C1CCCN(S(=O)(=O)Cc2ccccc2)C1` (stereo not given), the IC50 is 8.53 µM.
As for `COc1ccccc1CNC(=O)C1CCCN(c2nc3ccsc3c(=O)s2)C1` (stereo not given), the IC50 was 4.2 µM.
Regarding `CCOc1ccc(N2C(=O)c3ccccc3C2C(=O)NCc2ccccc2OC)cc1` (stereo not given), the IC50 was 45.8 µM.
With `Cc1cccc(NC(=O)Nc2nnc(CC(=O)NCc3ccccc3)s2)c1` the figure was 10.7 µM.
For the compound `CC(C)(C)n1ncc2c(=O)n(Cc3cccc([N+](=O)[O-])c3)cnc21`, the IC50 was > 50 µM (inactive).
Then `CCCCCC(O)c1c(O)cc2c(c1O)C(=O)c1c(O)cc(O)cc1C2=O` (stereo not given), with > 50 µM (inactive); and `C[C@@H]1OC2=C(C(=O)c3cccc(O)c3C2=O)[C@H](O)[C@@H]1O`, with 0.31 µM.
Regarding `NS(=O)(=O)c1ccc(NS(=O)(=O)c2ccc(NC(=O)Nc3ccc(Cl)cc3)cc2)cc1`, the IC50 was 37.8 µM.
In the case of `C=C1Nc2ccccc2C(=O)N1c1cccc(NC(=O)c2ccc(C)c(C)c2)c1`, the IC50 is > 50 µM (inactive).
Turning to `Cc1nnc(-c2nnc(NCc3ccc(Cl)cc3)c3ccccc23)o1`, the IC50 is > 50 µM (inactive).
Then `CO[C@H]1/C=C/OC2(C)Oc3c(C)c(O)c4c(c3C2=O)C2(C=C(NC(=O)/C(C)=C\C=C\[C@H](C)[C@H](O)[C@@H](C)[C@@H](O)[C@@H](C)[C@H](OC(C)=O)C1C)C4=O)OCC(=O)O2` (stereo not given in full), with 42.6 µM; and `Nc1nonc1C(=O)NCCNCc1cccc(OCc2ccc(Cl)cc2)c1`, with > 50 µM (inactive); and `CCCNC(=O)c1ccn(-c2ccc3ccc(-c4cnn(C)c4)cn23)n1`, with > 50 µM (inactive).
With `c1csc(-c2nc(Nc3ccc4c(c3)CCC4)c3ccccc3n2)c1` the figure was 4.19 µM.
Regarding `COc1ccc(C(=O)Nc2cc(F)c3nc(N4CCOCC4)ccc3c2)c(OC)c1`, the IC50 is 33.9 µM.
With `O=C(NCc1ccc2c(c1)OCO2)c1cc(-c2cc(Cl)ccc2O)n[nH]1` the figure was 3.15 µM.

As a reminder, the IC50 is the concentration that gives 50% inhibition.
